Assay results reported in PMC3869244, “Cyclopamine analogs bearing exocyclic methylenes are highly potent and acid-stable inhibitors of hedgehog signaling” (Beilstein Journal of Organic Chemistry, 2013).
“Also recorded” adds a separate entry of the source. Like-named read-outs stand apart in the source and are kept apart here.

Assays:
[1] = tested on: Gli1-dependent luciferase expression in Shh-LIGHTII cells; test: Gli1-reporter gene assay (luciferase) in Shh-LIGHTII cells; assay type: cell-based, mouse; details: for IC50: Mus musculus, Shh Light II, 48 h, read-out: Potency in Gli-assay (IC50); for Activity in Gli1-dependent luciferase assay (in words): concentration range 0.01 μM to 10 μM
Procedure: Next, we examined all synthesized compounds for their ability to inhibit the Gli1-dependent luciferase expression in Shh-LIGHTII cells, a clonal mouse fibroblast cell line which stably incorporates a Gli-dependent firefly luciferase reporter and a constitutive Renilla luciferase reporter. The compounds were tested in a concentration range from 0.01 μM to 10 μM.
Data were obtained from three independent experiments and represent the mean ± standard deviation.
The interference of the exo-cyclopamine derivatives with the hedgehog signaling pathway was tested in an established reporter gene assay based on the inhibition of the target gene Gli1. Shh-LIGHTII cells (ATCC CRL-2795, LGC, Wesel, Germany) represent a clonal mouse fibroblast cell line (NIH 3T3), which stably incorporates a Gli-dependent firefly luciferase reporter and a constitutive Renilla luciferase reporter. They were grown in […] cell culture flasks at 37 °C in a humid atmosphere with 5% CO2. Cell growth medium […] (Dulbecco's Modified Eagle's Medium, high glucose, sodium pyruvate, w/o glutamine), ZeocinTM Selection Reagent and Geneticin® Selection Antibiotic (G418 sulfate) were obtained from Invitrogen. Additive L-glutamin and trypsin were obtained from PAA. VerseneTM chelating agent was obtained from Gibco, bovine fetal serum (FBS) from Sigma. The cell freeze medium contained 5% DMSO in complete growth medium. The cell number was counted using a Neubauer-Zählkammer (Hemocytometer).
(§1) […] (high glucose, sodium pyruvate, w/o glutamine) supplemented with 0.5% FBS, 4 mM L-glutamin and 50 mM HEPES buffer (4-(2-hydroxyethyl)-1-piperazine ethanesulfonic acid) (pH 7.4) was used as incubation medium. The measurement of reporter gene and constitutive Renilla luminescence was performed with the Dual Luciferase® reporter system according to the manufacturer’s instructions (Promega, Mannheim, Germany) using a GENios reader (TECAN, Crailsheim, Germany).
Luciferase reporter assay.
For performing the assay, Shh-LIGHTII cells were grown to reach 80% confluence, washed twice with Versene, detached with 2 mL trypsin for not longer than 2 min and resuspended in 8 mL of growth medium. After centrifugation for 3 min, the supernatant was removed and the cell pellet dissolved in approximately 10 mL of growth medium. Finally, 20,000 to 100,000 cells per well were cultured in a 24-well plate for 48 h. For exposure to the derivatives the growth medium was removed and the cells were exposed to the compound in 500 μL/well incubation medium for 48 h. Stock solutions were prepared in EtOH and introduced in different concentrations into the incubation medium to reach a final solvent concentration of 0.05%. Due to the assay principle, Shh-LIGHTII cells had to be co-exposed to 100 nM of SAG (Smoothened agonist) for determining the inhibitory activity of the compounds. A SAG stock solution was prepared in EtOH and introduced into the medium. The final EtOH concentration – introduced by SAG and the test compound – was 0.1%. As a positive control a 100 nM SAG solution in incubation medium (0.1% EtOH) was used, negative controls were treated with EtOH […]
Performing the luciferase measurement.
After 48 h of incubation cells were washed with 500 μL PBS (phosphate buffered saline, w Mg/Ca, Invitrogen) and afterwards incubated for 15 min with 100 μL 1 x passive lysis buffer on a shaker. The lysed cells together with lysis solution were transferred into 1.5 mL reaction tubes, centrifuged for 1 min at 4 °C and kept on ice until further use. At first, the blank of luminescence of a 96-well plate (flat bottom, white, Greiner bio-one) was recorded. Then, 100 μL luciferase assay reagent and 10 μL cell supernatant were mixed per well and the luminescence of firefly luciferase was recorded. Addition of 100 μL Stop&Glo® reagent permitted the recording

[2] = Stability towards acidic conditions; assay type: physicochemical; details: pH approximately 1 (MeOH, 1 M HCl), 1H NMR compared with pure compound
Procedure: Finally, we studied the stability of all newly synthesized compounds towards acidic conditions. Therefore, they were exposed to a pH of approximately 1 (MeOH, 1 M HCl) for 24 h. After evaporation of all volatiles, ^1H NMR spectra were acquired and compared to the initially obtained spectra of the pure compounds. […] This experiment emphasizes the importance of the C-21 methyl group for the stability of exo-cyclopamine derivatives. All synthesized compounds, the number of steps required, and the respective overall yield starting from 3 or 14, as well as their biological activity and stability under acidic conditions are summarized in Table 1.

[3] = tested on: Gli1-dependent luciferase expression in Shh-LIGHTII cells; details: cited from earlier work
Shh-LIGHTII cells = test: Cytotoxicity observed in the reporter gene assay; assay type: cell-based, mouse; details: in the concentration range tested (0.01 μM to 10 μM)
Procedure: Given the negative test results of compounds 8 and 9 it becomes evident that the F-ring is necessary for bioactivity. The piperidine moiety provides a rather rigidly placed nitrogen atom. Nevertheless, a pyrrolidine as in compound 23 still provides the correct orientation of the nitrogen atom.
The interference of the exo-cyclopamine derivatives with the hedgehog signaling pathway was tested in an established reporter gene assay based on the inhibition of the target gene Gli1. […] The cell number was counted using a Neubauer-Zählkammer (Hemocytometer).
as §1, with “Germany). […]” for “Germany).”
After 48 h of incubation cells were washed with 500 μL PBS (phosphate buffered saline, w Mg/Ca, Invitrogen) and afterwards incubated for 15 min with 100 μL 1 x passive lysis buffer on a shaker. […] At first, the blank of luminescence of a 96-well plate (flat bottom, white, Greiner bio-one) was recorded. […]

[4] = cited from earlier work
[5] = Shh-LIGHTII cells, co-exposed to 100 nM SAG, tested 0.01 μM to 10 μM, mean ± standard deviation of three independent experiments
[6] = read-out: Potency in Gli-assay, previously synthesized and biologically evaluated

| SMILES | IC50 [1, 5] [µM] | Stability towards acid (pH ~1, 24 h) [2] | Activity in Gli1-dependent luciferase assay (in words) [1] | also measured |
| --- | --- | --- | --- | --- |
| C=C1C2CC3C(CC=C4CC(O)CCC43C)C2CCC12OC1CC(C)CNC1C2C (stereo not drawn) [Compound 5, 25-epi-exo-cyclopamine] | 3.29 ± 0.31 | remained unchanged; also recorded: stable |  |  |
| C=C1CN[C@H]2C[C@@]3(CC[C@H]4[C@@H]5CC=C6C[C@@H](O)CC[C@]6(C)[C@H]5C[C@H]4C3=C)O[C@@H]2C1 [Compound 19, 20-demethyl-bis-exo-cyclopamine] |  | showed decomposition; also recorded: decomp | no activity; also recorded: completely inactive | IC50 [1]: > 10 µM |
| C=C1CNC2C(C1)OC1(CCC3C(CC4C3CC=C3CC(O)CCC34C)C1=C)C2C (stereo not drawn) [Compound 6, bis-exo-cyclopamine] | 0.2 ± 0.01 |  |  | Potency relative to parent compound (cyclopamine) ([1]; surpasses potency of parent compound): 25 fold |
| C=C1C2CC3C(CC=C4CC(O)CCC43C)C2CCC12CC1NCCC1O2 (stereo not drawn) [Compound 23, F-nor-20,25-bis-demethyl-exo-cyclopamine] | 6.4 ± 0.9 | showed decomposition; also recorded: decomp |  |  |
| C=C1[C@@H]2C[C@H]3[C@@H](CC=C4C[C@@H](O)CC[C@@]43C)[C@@H]2CC[C@]12O[C@@H]1C[C@H](C)CN[C@H]1[C@H]2C [Compound 2, exo-cyclopamine] |  |  |  | IC50 [3, 6]: 0.5 µM |
| C=C1[C@@H]2C[C@H]3[C@@H](CC=C4C[C@@H](O)CC[C@@]43C)[C@@H]2CC[C@]12OC[C@@H](NCC)[C@H]2C [Compound 8] | > 10 | remained unchanged; also recorded: stable | no activity | Cytotoxicity (Shh-LIGHTII cells): induced cytotoxicity |
| C=C1[C@@H]2C[C@H]3[C@@H](CC=C4C[C@@H](O)CC[C@@]43C)[C@@H]2CC[C@]12OC[C@@H](N)[C@H]2C [Compound 9] | > 10 | remained unchanged; also recorded: stable | no activity | Cytotoxicity (Shh-LIGHTII cells): induced cytotoxicity |
| CC1=C2C[C@H]3[C@@H](CC=C4C[C@@H](O)CC[C@@]43C)[C@@H]2CC[C@]12O[C@@H]1C[C@H](C)CN[C@H]1[C@H]2C [Compound 1, cyclopamine] |  |  |  | pH at which decomposition occurs ([4]; low metabolic stability (decomposition)): < 3; Stability towards acid (pH ~1, 24 h) ([4]; previously synthesized and evaluated compounds): decomp.; IC50 ([3]; read-out: Potency (IC50) as inhibitor of hedgehog signaling, introductory statement, no assay details printed): ~5 µM; IC50 [3, 6]: 5 µM |
